Source: patent publication US9827320B2, “Compositions with reduced bitter taste perception” (The Procter & Gamble Company, priority 2014, dated 2017)
Counter-ions that a name gives are not always drawn.

What follows are compounds tested on Human fungiform taste bud cells (assay: Assay for Taste Receptors (calcium fluorescence, FLIPR)). Details: FIG. 5B; 0.5 mM 1,10-phenanthroline, 0.5 mM saccharin, 3% propylene glycol; without polyquaternium-2.
Format: cell-based

| Compound | bitterness of the component itself |
| --- | --- |
| c1cnc2c(c1)ccc1cccnc12 [1,10-phenanthroline] | very bitter |
| CC(O)CO (stereo not drawn) [propylene glycol] | very bitter |
| O=C1NS(=O)(=O)c2ccccc21 [saccharin] | very bitter |

Same assay, conditions: FIG. 5C; 2 mM; without polyquaternium-2

| Compound | bitterness of the component itself |
| --- | --- |
| CNC(N)=S [N-methylthiourea] | only slightly bitter |
| N#C[C@H](O[C@@H]1O[C@H](CO[C@@H]2O[C@H](CO)[C@@H](O)[C@H](O)[C@H]2O)[C@@H](O)[C@H](O)[C@H]1O)c1ccccc1 [amygdalin] | only slightly bitter |
| N=C(NCCCCCCNC(=N)NC(=N)Nc1ccc(Cl)cc1)NC(=N)Nc1ccc(Cl)cc1 [chlorhesidice] | only slightly bitter |
| Cc1ccccc1C(OCCN(C)C)c1ccccc1 (stereo not drawn) [orphenadrine hydrochloride] | most bitter component |
| CCN(CC)CCNC(=O)c1ccc(N)cc1 [procainamide hydrochloride] | only slightly bitter |
| O=C1CCCCCN1 [ε-Caprolactam] | only slightly bitter |
